The source of these data is paper PMC1513218 (BMC Pharmacology, 2006).

The target in assay [1] is T1, anthrax lethal factor (LF) protease (Bacillus anthracis, UniProt P15917). In words: biochemical. It is filed as biochemical.
Assay [2] concerns the target botulinum neurotoxin/A (BoNT/A) (Clostridium botulinum, UniProt P0DPI1). Briefly: biochemical. It is filed as biochemical.
Assay [3] concerns the target T1, anthrax lethal factor (LF) protease. It is filed as biochemical.
The target of the next assay is MMP-9 (Homo sapiens, UniProt P14780). In words: biochemical.
For the next assay, the target named is furin (Homo sapiens, UniProt P09958). In words: Furin inhibition, fluorogenic substrate cleavage assay. It is filed as biochemical.
The next assay addresses cathepsin B (Homo sapiens, UniProt P07858). Briefly: biochemical.
The target of another assay is cathepsin D (Homo sapiens, UniProt P07339). Briefly: biochemical.
The target in the next assay is trypsin (Homo sapiens, UniProt P07477). In words: biochemical.

Structures can show the parent of a compound that is named as a salt. Where only a bound is given, the exact number is not on record here.

T1 sequence (P15917 34-809 limits assumed): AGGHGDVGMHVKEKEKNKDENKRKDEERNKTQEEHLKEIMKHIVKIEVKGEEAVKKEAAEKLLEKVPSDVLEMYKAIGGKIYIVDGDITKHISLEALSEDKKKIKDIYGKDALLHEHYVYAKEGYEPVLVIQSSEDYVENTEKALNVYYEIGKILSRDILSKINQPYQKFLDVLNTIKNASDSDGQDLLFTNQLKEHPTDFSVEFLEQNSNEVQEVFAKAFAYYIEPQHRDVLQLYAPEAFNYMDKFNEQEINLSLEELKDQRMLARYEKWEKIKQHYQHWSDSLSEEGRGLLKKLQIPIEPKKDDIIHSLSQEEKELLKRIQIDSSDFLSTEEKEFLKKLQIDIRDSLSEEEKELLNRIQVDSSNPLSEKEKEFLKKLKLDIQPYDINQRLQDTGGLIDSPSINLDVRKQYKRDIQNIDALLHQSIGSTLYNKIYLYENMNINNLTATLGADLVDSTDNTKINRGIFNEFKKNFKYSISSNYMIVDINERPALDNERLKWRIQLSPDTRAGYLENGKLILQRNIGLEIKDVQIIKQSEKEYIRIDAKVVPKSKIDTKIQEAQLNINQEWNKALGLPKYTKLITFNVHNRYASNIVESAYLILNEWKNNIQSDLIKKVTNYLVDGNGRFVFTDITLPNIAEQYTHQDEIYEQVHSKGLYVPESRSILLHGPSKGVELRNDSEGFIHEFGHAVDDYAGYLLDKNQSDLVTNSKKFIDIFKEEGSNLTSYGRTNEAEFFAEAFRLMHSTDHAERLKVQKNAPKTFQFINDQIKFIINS
Chain of botulinum neurotoxin/A (BoNT/A) (P0DPI1 whole entry, looked up): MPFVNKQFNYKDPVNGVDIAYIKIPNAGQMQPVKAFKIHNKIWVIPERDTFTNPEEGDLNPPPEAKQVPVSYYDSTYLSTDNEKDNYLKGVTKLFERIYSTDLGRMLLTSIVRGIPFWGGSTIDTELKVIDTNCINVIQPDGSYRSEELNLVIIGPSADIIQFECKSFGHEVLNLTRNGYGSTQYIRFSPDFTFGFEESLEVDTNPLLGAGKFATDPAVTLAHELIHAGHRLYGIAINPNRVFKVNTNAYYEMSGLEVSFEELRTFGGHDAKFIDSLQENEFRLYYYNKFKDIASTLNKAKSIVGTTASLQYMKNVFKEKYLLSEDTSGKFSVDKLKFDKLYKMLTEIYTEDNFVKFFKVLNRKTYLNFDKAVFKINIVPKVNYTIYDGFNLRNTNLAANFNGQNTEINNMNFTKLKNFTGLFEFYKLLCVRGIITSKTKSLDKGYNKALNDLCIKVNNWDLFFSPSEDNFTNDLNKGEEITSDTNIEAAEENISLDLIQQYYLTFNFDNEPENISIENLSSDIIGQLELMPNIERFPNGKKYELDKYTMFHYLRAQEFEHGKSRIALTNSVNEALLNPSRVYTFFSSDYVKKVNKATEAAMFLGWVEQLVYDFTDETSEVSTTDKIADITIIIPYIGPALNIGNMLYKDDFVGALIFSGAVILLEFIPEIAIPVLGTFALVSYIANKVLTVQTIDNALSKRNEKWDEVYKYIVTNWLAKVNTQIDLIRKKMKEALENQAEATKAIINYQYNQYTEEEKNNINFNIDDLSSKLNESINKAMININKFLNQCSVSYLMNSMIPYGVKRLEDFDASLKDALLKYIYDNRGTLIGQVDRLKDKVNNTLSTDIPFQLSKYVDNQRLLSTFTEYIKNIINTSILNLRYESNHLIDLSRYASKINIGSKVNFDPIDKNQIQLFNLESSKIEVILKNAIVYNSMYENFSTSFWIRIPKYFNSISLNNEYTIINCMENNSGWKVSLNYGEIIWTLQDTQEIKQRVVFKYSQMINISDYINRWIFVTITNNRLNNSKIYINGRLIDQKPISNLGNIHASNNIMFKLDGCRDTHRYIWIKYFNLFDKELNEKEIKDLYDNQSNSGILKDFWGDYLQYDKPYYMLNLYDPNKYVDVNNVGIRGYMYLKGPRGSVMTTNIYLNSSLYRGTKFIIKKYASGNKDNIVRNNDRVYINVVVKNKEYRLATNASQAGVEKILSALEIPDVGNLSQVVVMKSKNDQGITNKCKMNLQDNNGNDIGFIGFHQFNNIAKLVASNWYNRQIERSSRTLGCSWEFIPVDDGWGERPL
Chain of furin (P09958 108-794): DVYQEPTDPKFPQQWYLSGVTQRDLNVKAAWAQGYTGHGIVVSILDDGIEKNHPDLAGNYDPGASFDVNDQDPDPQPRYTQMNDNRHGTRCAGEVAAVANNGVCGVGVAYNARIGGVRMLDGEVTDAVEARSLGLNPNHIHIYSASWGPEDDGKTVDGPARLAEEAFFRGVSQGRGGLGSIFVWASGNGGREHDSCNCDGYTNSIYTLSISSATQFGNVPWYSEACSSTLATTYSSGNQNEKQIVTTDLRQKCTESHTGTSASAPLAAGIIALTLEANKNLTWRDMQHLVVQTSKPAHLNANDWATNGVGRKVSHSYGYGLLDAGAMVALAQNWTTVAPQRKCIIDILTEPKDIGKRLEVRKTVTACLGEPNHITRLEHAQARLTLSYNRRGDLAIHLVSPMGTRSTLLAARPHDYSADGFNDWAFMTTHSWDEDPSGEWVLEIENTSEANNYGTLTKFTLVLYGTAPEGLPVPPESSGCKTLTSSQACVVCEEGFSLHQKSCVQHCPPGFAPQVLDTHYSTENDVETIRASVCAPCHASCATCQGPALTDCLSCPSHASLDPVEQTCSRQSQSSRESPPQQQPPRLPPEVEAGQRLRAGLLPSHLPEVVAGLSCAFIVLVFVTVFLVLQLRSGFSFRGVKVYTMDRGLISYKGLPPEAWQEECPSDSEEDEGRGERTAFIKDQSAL
Chain of MMP-9 (P14780 94-707, species assumed): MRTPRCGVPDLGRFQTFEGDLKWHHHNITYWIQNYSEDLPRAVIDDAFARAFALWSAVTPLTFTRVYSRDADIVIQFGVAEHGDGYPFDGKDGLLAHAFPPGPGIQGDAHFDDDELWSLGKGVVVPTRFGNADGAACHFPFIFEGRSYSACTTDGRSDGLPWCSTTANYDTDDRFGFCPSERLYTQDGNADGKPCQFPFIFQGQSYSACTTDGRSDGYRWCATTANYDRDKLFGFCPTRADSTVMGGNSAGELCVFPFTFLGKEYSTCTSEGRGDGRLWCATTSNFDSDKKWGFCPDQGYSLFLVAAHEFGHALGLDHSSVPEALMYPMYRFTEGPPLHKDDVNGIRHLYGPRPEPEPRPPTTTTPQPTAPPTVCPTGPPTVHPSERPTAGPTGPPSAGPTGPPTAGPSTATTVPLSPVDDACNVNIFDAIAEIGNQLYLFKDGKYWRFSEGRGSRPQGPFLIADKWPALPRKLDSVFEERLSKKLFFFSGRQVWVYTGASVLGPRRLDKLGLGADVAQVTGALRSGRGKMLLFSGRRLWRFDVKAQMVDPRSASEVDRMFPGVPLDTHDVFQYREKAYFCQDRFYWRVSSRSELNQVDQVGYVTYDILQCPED
Chain of cathepsin D (P07339 65-412, species assumed): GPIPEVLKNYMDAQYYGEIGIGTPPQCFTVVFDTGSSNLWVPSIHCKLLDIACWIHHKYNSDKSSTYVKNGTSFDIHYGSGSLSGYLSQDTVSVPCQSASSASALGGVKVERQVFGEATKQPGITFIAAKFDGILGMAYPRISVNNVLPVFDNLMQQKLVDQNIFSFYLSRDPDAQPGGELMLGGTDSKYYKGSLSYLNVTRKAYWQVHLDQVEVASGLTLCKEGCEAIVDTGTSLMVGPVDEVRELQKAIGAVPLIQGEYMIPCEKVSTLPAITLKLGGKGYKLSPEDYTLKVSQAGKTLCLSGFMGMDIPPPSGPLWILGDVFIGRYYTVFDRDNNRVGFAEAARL

As a reminder, the Ki is the equilibrium dissociation constant of an inhibitor or competing ligand from its target. Low values mean a stronger hold on the target, high ones a looser hold on the target. As usually defined, the IC50 is the midpoint of a concentration-inhibition curve. In the case of `CNC(=O)[C@H](Cc1c[nH]c2ccccc12)NC(=O)[C@@H](CC(=O)NO)CC(C)C` [GM 6001], the affinity in assay [1] corresponds to a Ki of 7.2 ± 1.76 µM. The IC50 in assay [2] is above 300 µM.

For the compound `NC[C@@H]1O[C@H](O[C@H]2[C@@H](O)[C@H](O[C@@H]3[C@@H](O)[C@H](N)C[C@H](N)[C@H]3O[C@H]3O[C@H](CN)[C@@H](O)[C@H](O)[C@H]3N)O[C@@H]2CO)[C@H](N)[C@@H](O)[C@@H]1O` [Neomycin B tris-sulfate], in assay [3], the “right shift in potency as LF inhibitor caused by DNA” value was ~ 10 fold. The values for the Ki (in assay [1]; on MMP-9) were 0.71 ± 0.04 µM and above 300 µM, respectively. In addition, the 50% inhibitory concentration (IC50) in assay [2] is 92.5 µM.

Consider `NCCC[C@H](N)C(=O)O` [ornithine], for which the “LF inhibition (in words)” value in assay [1] was “weaker than spermine but were still concentration-dependent inhibitors”.

`N=C(N)NCCC[C@@H](N)C(=O)N[C@H](CCCNC(=N)N)C(=O)N[C@H](CCCNC(=N)N)C(=O)N[C@H](CCCNC(=N)N)C(=O)N[C@H](CCCNC(=N)N)C(=O)N[C@H](CCCNC(=N)N)C(N)=O` [H-(D-Arg)-(D-Arg)-(D-Arg)-(D-Arg)-(D-Arg)-(D-Arg)-NH2]: the inhibitory constant (Ki) in assay [1] came to 0.04 ± 0.02 µM; at furin, 0.06 µM.

`N=C(N)NC[C@H]1O[C@H](O[C@H]2[C@H](O)[C@@H](O)[C@H](NC(=N)N)C[C@@H]2NC(=N)N)[C@H](NC(=N)N)[C@@H](O)[C@@H]1O` [Tetraguanyl neamine, free base, Tetraguanyl neamine] returned a Ki in assay [1] of 0.3 µM.

Take `CN[C@@H]1[C@@H](O)[C@@H](O[C@@H]2[C@@H](O)[C@H](O[C@H]3OC(CN)=CC[C@H]3N)[C@@H](N)C[C@H]2N)OC[C@]1(C)O` [Sisomicin Sulfate]: the Ki is 1.8 µM in assay [1] and above 300 µM at MMP-9. Further, the 50% inhibitory concentration (IC50) in assay [2] was above 300 µM.

Take `NCCCNCCCCNCCCN` [Spermine, diphosphate salt]: the “effect of DNA or RNA on concentration-dependent LF inhibitory activity” value in assay [3] is given as “unaffected by DNA or RNA”. In addition, the Ki is 0.9 ± 0.09 µM in assay [1], 46 ± 6 µM in assay [2] and above 300 µM on MMP-9. Moreover, the concentration for half-maximal inhibition (IC50) in assay [2] is 57 µM; against cathepsin B, above 500 µM; against cathepsin D it was above 500 µM; against trypsin it was above 500 µM. Further, the “fold weaker as botulinum protease inhibitor than as anthrax LF inhibitor” value in assay [2] is above 40 fold.

For the compound `NCCCCNCCCN` [Spermidine], in assay [1], the inhibition constant (Ki) is above 100 µM and the “LF inhibition (in words)” value was “weaker than spermine but were still concentration-dependent inhibitors”. In assay [2], this compound gave a 50% inhibitory concentration (IC50) of 76 µM.

For the compound `NC(N)=NCCC[C@H](NC(=O)[C@H](CCCN=C(N)N)NC(=O)[C@H](CCCN=C(N)N)NC(=O)[C@H](CCCN=C(N)N)NC(=O)[C@H](CCCN=C(N)N)NC(=O)[C@@H](N)CCCN=C(N)N)C(=O)O` [H-RRRRRR-OH], the Ki in assay [1] was 0.24 µM; on furin, 0.06 µM.

On to `CN[C@@H]1[C@@H](O[C@H]2O[C@H](CO)[C@@H](N)[C@H](O)[C@H]2O)OC2C[C@@H](N)[C@@H](O[C@H]3[C@H](O)[C@@H](O)[C@H](N)C[C@@H]3N)OC2[C@@H]1O` (stereo partly drawn) [Apramycin], for which the inhibitory constant (Ki) in assay [1] was 111 µM; on MMP-9, above 300 µM. The IC50 in assay [2] is above 300 µM.

On to `NCC[C@H](O)C(=O)N[C@@H]1C[C@H](N)[C@@H](O[C@H]2O[C@H](CN)[C@@H](O)[C@H](O)[C@H]2O)[C@H](O)[C@H]1O[C@H]1O[C@H](CO)[C@@H](O)[C@H](N)[C@H]1O` [Amikacin], for which the Ki in assay [1] is 23.3 µM; on MMP-9, above 300 µM. Moreover, the half-maximal inhibitory concentration (IC50) in assay [2] is above 300 µM.

For `NC[C@H]1O[C@H](O[C@H]2[C@H](O)[C@@H](O)[C@H](N)C[C@@H]2N)[C@H](N)[C@@H](O)[C@@H]1O` [Neamine (free base), Neamine], the “effect of DNA or RNA on concentration-dependent LF inhibitory activity” value in assay [3] was “unaffected by DNA or RNA”. In addition, the figures for the Ki (in assay [1]; on MMP-9) were 31.1 ± 5.6 µM and above 300 µM, respectively. Further, the IC50 in assay [2] is 175 µM.

Consider `NCCCCN` [Putrescine (1,4-diaminobutane), 1,4-diaminobutane], for which the inhibitory constant (Ki) (in assay [1]; at MMP-9) was above 300 µM in each case. This compound gave an IC50 in assay [2] above 300 µM.

`CC(=O)N[C@@H](CCCNC(=N)N)C(=O)N[C@@H](CCCNC(=N)N)C(=O)N[C@@H](CCCNC(=N)N)C(=O)N[C@@H](CCCNC(=N)N)C(=O)N[C@@H](CCCNC(=N)N)C(=O)N[C@@H](CCCNC(=N)N)C(N)=O` [Ac-RRRRRR-NH2]: in assay [1], the Ki amounted to 0.12 µM.

In the case of `N=C(N)NC[C@@H]1O[C@H](O[C@H]2[C@@H](O)[C@H](O[C@@H]3[C@@H](O)[C@H](NC(=N)N)C[C@H](NC(=N)N)[C@H]3O[C@H]3O[C@H](CNC(=N)N)[C@@H](O)[C@H](O)[C@H]3NC(=N)N)O[C@@H]2CO)[C@H](NC(=N)N)[C@@H](O)[C@@H]1O` [Neomycin B hexaguanyl hexatrifluoroacetate salt], the Ki in assay [1] was 0.03 µM; at MMP-9, above 170 µM; on furin it was 1.5 µM. Further, in assay [2], the IC50 amounted to 14 µM.

`CC(=O)N[C@@H](CCCNC(=N)N)C(=O)N[C@@H](CCCNC(=N)N)C(=O)N[C@@H](CCCNC(=N)N)C(=O)N[C@@H](CCCNC(=N)N)C(=O)N[C@@H](CCCNC(=N)N)C(=O)N[C@@H](CCCNC(=N)N)C(=O)O` [Ac-RRRRRR-OH]: the Ki in assay [1] was found to be 0.29 ± 0.04 µM; on furin, 0.05 µM.

For the compound `CNC(C)C1CCC(N)C(OC2C(N)CC(N)C(OC3OCC(C)(O)C(NC)C3O)C2O)O1` (stereo not drawn) [gentamicin], in assay [1], the “LF inhibition (in words)” value was “inhibited LF enzyme activity”.
